34 compounds from patent US20140073651A1, “BENZAMIDE DERIVATIVES AS P2X7 RECEPTOR ANTAGONISTS” (Actelion Pharmaceuticals Ltd., priority 2011, published 2014) can be followed below.

The experiment addresses T1, human recombinant P2X7 receptor (Homo sapiens, UniProt Q99572).
T1 construct: expressed in transfected cells
T1 sequence (Q99572 1-595): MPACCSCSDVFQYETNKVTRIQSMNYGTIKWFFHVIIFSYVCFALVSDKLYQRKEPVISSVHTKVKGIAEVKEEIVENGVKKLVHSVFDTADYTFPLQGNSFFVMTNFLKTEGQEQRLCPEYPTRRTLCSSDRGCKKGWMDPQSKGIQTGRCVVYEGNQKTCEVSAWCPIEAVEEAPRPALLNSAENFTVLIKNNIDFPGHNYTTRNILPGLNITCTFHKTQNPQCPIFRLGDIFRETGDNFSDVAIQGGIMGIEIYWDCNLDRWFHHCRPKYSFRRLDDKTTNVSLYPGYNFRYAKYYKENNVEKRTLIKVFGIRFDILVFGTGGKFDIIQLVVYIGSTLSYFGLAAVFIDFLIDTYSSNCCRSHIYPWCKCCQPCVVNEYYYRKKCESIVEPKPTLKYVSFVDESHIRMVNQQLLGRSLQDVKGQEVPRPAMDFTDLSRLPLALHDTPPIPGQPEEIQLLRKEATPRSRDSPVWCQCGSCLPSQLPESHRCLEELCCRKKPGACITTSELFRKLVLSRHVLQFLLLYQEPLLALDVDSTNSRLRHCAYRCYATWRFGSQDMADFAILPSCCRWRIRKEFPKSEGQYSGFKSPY
The experiment in a line: YO-PRO assay (YO-PRO-1 uptake) in HEK cells stably expressing P2X7. In kind it is cell-based. The conditions noted are these: HEK-293 cells expressing human recombinant P2X7 receptor; ATP 250 μM, 90 minutes; YO-PRO-1 fluorescence (FLIPR tetra); read-out: IC50 (antagonistic activity with respect to the P2X7 receptor). The essentials:
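Antagonist serially diluted (duplicates) on P2X7-expressing HEK cells in buffer with 0.5 μM YO-PRO-1; dye uptake followed on FLIPR Tetra over four time points. IC50 from maximum fluorescence intensity versus compound concentration.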
Regarding `CN(c1ccc(Cl)c(C(=O)NCC2(O)CCCCC2)c1)c1nccc(=O)[nH]1` [Example 75, 2-Chloro-N-(1-hydroxy-cyclohexylmethyl)-5-[methyl-(6-oxo-1,6-dihydro-pyrimidin-2-yl)-amino]-benzamide], the IC50 worked out at 1020 nM.

As to `O=C(NCC1(O)CCCCC1)c1cc(Nc2cncnc2)ccc1Cl` [Example 76, 2-Chloro-N-(1-hydroxy-cyclohexylmethyl)-5-(pyrimidin-5-ylamino)-benzamide], the IC50 is 418 nM.

For `COCCN(c1cncnc1)c1ccc(Cl)c(C(=O)NCC2(O)CCCCC2)c1` [Example 77, 2-Chloro-N-(1-hydroxy-cyclohexylmethyl)-5-[(2-methoxy-ethyl)-pyrimidin-5-yl-amino]-benzamide], the IC50 came to 1460 nM.

As for `O=C(NCC1(O)CCCCC1)c1cc(Nc2cnccn2)ccc1Cl` [Example 78, 2-Chloro-N-(1-hydroxy-cyclohexylmethyl)-5-(pyrazin-2-ylamino)-benzamide], the half-inhibitory concentration (IC50) was determined as 439 nM.

Take `CN(c1ccc(Cl)c(C(=O)NCC2(O)CCCCC2)c1)c1cnccn1` [Example 79, 2-Chloro-N-(1-hydroxy-cyclohexylmethyl)-5-(methyl-pyrazin-2-yl-amino)-benzamide]: the IC50 came to 352 nM.

Take `COCCN(c1ccc(Cl)c(C(=O)NCC2(O)CCCCC2)c1)c1cnccn1` [Example 80, 2-Chloro-N-(1-hydroxy-cyclohexylmethyl)-5-[(2-methoxy-ethyl)-pyrazin-2-yl-amino]-benzamide]: the IC50 was 1430 nM.

In the case of `CN(c1ccc(Cl)c(C(=O)NCC2(O)CCCCC2)c1)c1cncc(Cl)n1` [Example 81, 2-Chloro-5-[(6-chloro-pyrazin-2-yl)-methyl-amino]-N-(1-hydroxy-cyclohexylmethyl)-benzamide], the half-maximal inhibitory concentration (IC50) is 245 nM.

As for `COc1cncc(N(C)c2ccc(Cl)c(C(=O)NCC3(O)CCCCC3)c2)n1` [Example 82, 2-Chloro-N-(1-hydroxy-cyclohexylmethyl)-5-[(6-methoxy-pyrazin-2-yl)-methyl-amino]-benzamide], the IC50 was 76 nM.

For `CNc1cncc(N(C)c2ccc(Cl)c(C(=O)NCC3(O)CCCCC3)c2)n1` [Example 83, 2-Chloro-N-(1-hydroxy-cyclohexylmethyl)-5-[methyl-(6-methylamino-pyrazin-2-yl)-amino]-benzamide], the IC50 was 57 nM.

For `CN(C)c1cncc(N(C)c2ccc(Cl)c(C(=O)NCC3(O)CCCCC3)c2)n1` [Example 84, 2-Chloro-5-[(6-dimethylamino-pyrazin-2-yl)-methyl-amino]-N-(1-hydroxy-cyclohexylmethyl)-benzamide], the IC50 turned out to be 65 nM.

For the compound `CN(c1ccc(Cl)c(C(=O)NCC2(O)CCCCC2)c1)c1cncc(=O)[nH]1` [Example 85, 2-Chloro-N-(1-hydroxy-cyclohexylmethyl)-5-[methyl-(6-oxo-1,6-dihydro-pyrazin-2-yl)-amino]-benzamide], the 50% inhibitory concentration (IC50) worked out at 177 nM.

Take `CN(c1ccc(Cl)c(C(=O)NCC2(O)CCCCC2)c1)c1nccnc1Cl` [Example 86, 2-Chloro-5-[(3-chloro-pyrazin-2-yl)-methyl-amino]-N-(1-hydroxy-cyclohexylmethyl)-benzamide]: the half-inhibitory concentration (IC50) worked out at 61 nM.

As for `CN(c1ccc(Cl)c(C(=O)NCC2(O)CCCCC2)c1)c1cnc(Cl)cn1` [Example 87, 2-Chloro-5-[(5-chloro-pyrazin-2-yl)-methyl-amino]-N-(1-hydroxy-cyclohexylmethyl)-benzamide], the IC50 amounted to 190 nM.

Turning to `COc1cnc(N(C)c2ccc(Cl)c(C(=O)NCC3(O)CCCCC3)c2)cn1` [Example 88, 2-Chloro-N-(1-hydroxy-cyclohexylmethyl)-5-[(5-methoxy-pyrazin-2-yl)-methyl-amino]-benzamide], the IC50 worked out at 302 nM.

As for `CN(c1ccc(Cl)c(C(=O)NCC2(O)CCCCC2)c1)c1ccc(Cl)nn1` [Example 89, 2-Chloro-5-[(6-chloro-pyridazin-3-yl)-methyl-amino]-N-(1-hydroxy-cyclohexylmethyl)-benzamide], the IC50 was 271 nM.

In the case of `CN(c1ccc(Cl)c(C(=O)NCC2(O)CCCCC2)c1)c1ccc(=O)[nH]n1` [Example 90, 2-Chloro-N-(1-hydroxy-cyclohexylmethyl)-5-[methyl-(6-oxo-1,6-dihydro-pyridazin-3-yl)-amino]-benzamide], the IC50 worked out at 905 nM.

Consider `COc1ccc(N(C)c2ccc(Cl)c(C(=O)NCC3(O)CCCCC3)c2)nn1` [Example 91, 2-Chloro-N-(1-hydroxy-cyclohexylmethyl)-5-[(6-methoxy-pyridazin-3-yl)-methyl-amino]-benzamide], for which the IC50 was 354 nM.

Take `O=C(NCC1(O)CCCCC1)c1cc(Nc2ccccn2)ccc1Cl` [Example 92, 2-Chloro-N-(1-hydroxy-cyclohexylmethyl)-5-(pyridin-2-ylamino)-benzamide]: the IC50 is 82 nM.

For `CN(c1ccc(Cl)c(C(=O)NCC2(O)CCCCC2)c1)c1ccccn1` [Example 93, 2-Chloro-N-(1-hydroxy-cyclohexylmethyl)-5-(methyl-pyridin-2-yl-amino)-benzamide], the IC50 worked out at 111 nM.

On to `O=C(NCC1(O)CCCCC1)c1cc(Nc2cccc(=O)[nH]2)ccc1Cl` [Example 94, 2-Chloro-N-(1-hydroxy-cyclohexylmethyl)-5-(6-oxo-1,6-dihydro-pyridin-2-ylamino)-benzamide], for which the IC50 was determined as 160 nM.

As to `CN(c1ccc(Cl)c(C(=O)NCC2(O)CCCCC2)c1)c1cccc(=O)[nH]1` [Example 95, 2-Chloro-N-(1-hydroxy-cyclohexylmethyl)-5-[methyl-(6-oxo-1,6-dihydro-pyridin-2-yl)-amino]-benzamide], the IC50 stood at 351 nM.

In the case of `Cn1c(Nc2ccc(Cl)c(C(=O)NCC3(O)CCCCC3)c2)cccc1=O` [Example 96, 2-Chloro-N-(1-hydroxy-cyclohexylmethyl)-5-(1-methyl-6-oxo-1,6-dihydro-pyridin-2-ylamino)-benzamide], the IC50 amounted to 123 nM.

On to `COCCn1c(Nc2ccc(Cl)c(C(=O)NCC3(O)CCCCC3)c2)cccc1=O` [Example 97, 2-Chloro-N-(1-hydroxy-cyclohexylmethyl)-5-[1-(2-methoxy-ethyl)-6-oxo-1,6-dihydro-pyridin-2-ylamino]-benzamide], for which the IC50 was found to be 317 nM.

Regarding `COCCn1c(N(C)c2ccc(Cl)c(C(=O)NCC3(O)CCCCC3)c2)cccc1=O` [Example 98, 2-Chloro-N-(1-hydroxy-cyclohexylmethyl)-5-{[1-(2-methoxy-ethyl)-6-oxo-1,6-dihydro-pyridin-2-yl]-methyl-amino}-benzamide], the half-maximal inhibitory concentration (IC50) was found to be 332 nM.

In the case of `Cn1cccc(Nc2ccc(Cl)c(C(=O)NCC3(O)CCCCC3)c2)c1=O` [Example 99, 2-Chloro-N-(1-hydroxy-cyclohexylmethyl)-5-(1-methyl-2-oxo-1,2-dihydro-pyridin-3-ylamino)-benzamide], the IC50 turned out to be 148 nM.

Consider `Cn1nccc1Nc1ccc(Cl)c(C(=O)NCC2(O)CCCCC2)c1` [Example 100, 2-Chloro-N-(1-hydroxy-cyclohexylmethyl)-5-(2-methyl-2H-pyrazol-3-ylamino)-benzamide], for which the IC50 worked out at 217 nM.

For `CN(c1ccc(Cl)c(C(=O)NCC2(O)CCCCC2)c1)c1ccnn1C` [Example 101, 2-Chloro-N-(1-hydroxy-cyclohexylmethyl)-5-[methyl-(2-methyl-2H-pyrazol-3-yl)-amino]-benzamide], the IC50 came to 319 nM.

For `O=C(NCC1(O)CCCCC1)c1cc(Oc2cccc(F)n2)ccc1Cl` [Example 102, 2-Chloro-5-(6-fluoro-pyridin-2-yloxy)-N-(1-hydroxy-cyclohexylmethyl)-benzamide], the IC50 worked out at 37 nM.

Consider `O=C(NCC1(O)CCCCC1)c1cc(Oc2cc(F)ccn2)ccc1Cl` [Example 103, 2-Chloro-5-(4-fluoro-pyridin-2-yloxy)-N-(1-hydroxy-cyclohexylmethyl)-benzamide], for which the IC50 was determined as 46 nM.

With `O=C(NCC1(O)CCCCC1)c1cc(Oc2ccnc(Cl)c2)ccc1Cl` [Example 104, 2-Chloro-5-(2-chloro-pyridin-4-yloxy)-N-(1-hydroxy-cyclohexylmethyl)-benzamide], the IC50 is 100 nM.

Turning to `O=C(NCC1(O)CCCCC1)c1cc(Oc2ccccn2)ccc1Cl` [Example 105, 2-Chloro-N-(1-hydroxy-cyclohexylmethyl)-5-(pyridin-2-yloxy)-benzamide], the half-maximal inhibitory concentration (IC50) came out at 47 nM.

With `O=C(NCC1(O)CCCCC1)c1cc(Oc2ccncc2)ccc1Cl` [Example 106, 2-Chloro-N-(1-hydroxy-cyclohexylmethyl)-5-(pyridin-4-yloxy)-benzamide], the IC50 is 1720 nM.

Turning to `O=C(NCC1(O)CCCCC1)c1cc(Oc2cccnc2)ccc1Cl` [Example 107, 2-Chloro-N-(1-hydroxy-cyclohexylmethyl)-5-(pyridin-3-yloxy)-benzamide], the IC50 turned out to be 70 nM.

With `O=C(NCC1(O)CCCCC1)c1cc(Oc2cccc(Cl)n2)ccc1Cl` [Example 108, 2-Chloro-5-(6-chloro-pyridin-2-yloxy)-N-(1-hydroxy-cyclohexylmethyl)-benzamide], the IC50 worked out at 64 nM.

One may read the IC50 as the point on the concentration scale where inhibition reaches its midpoint.
